Several values for one entry are separate records, joined by “and”; a condition that tells them apart may be missing. Equal values may be shown once. Entries after “also recorded” stand apart in the source; their conditions may differ.
System: LPS-induced lung neutrophilia
Test: LPS-induced lung neutrophilia: total and neutrophil cell counts in BALF
Assay type: in vivo, BALB/c mice
Conditions: for total cell and neutrophil recruitment to the lungs (measured in BALF): 10, 30, and 100 mg/kg SC 30 min before intranasal LPS, 4 hours postchallenge, vs vehicle control; for Neutrophils in BALF: % reduction / Total cells/white blood cells in BALF: % reduction / Neutrophils in BALF, Mean / Total cells/white blood cells in BALF, Mean / Neutrophils in BALF, individual mice / Total cells/white blood cells in BALF, individual mice: LPS; for Neutrophils in BALF, Mean / Total cells/white blood cells in BALF, Mean / Neutrophils in BALF, individual mice / Total cells/white blood cells in BALF, individual mice: BALF 4 h after LPS
Method: Six-week-old male BALB/c mice (Charles River, Calco, Italy) were singly housed in a temperature-controlled (22°C±2°C) environment with a 12:12-hour light:dark cycle and free access to food and water. Mice were given ≥7 days for acclimation before all procedures. […] One day before the start of experimental procedures, all animals were randomized into 6 groups (n = 8/group). Animal group assignment was not blinded.
LPS lyophilized powder (2 mg; Sigma-Aldrich Chemie GmbH, Munich, Germany) from Escherichia coli (O111:B4) was dissolved in 10 mL cold saline (0.9%; Pliva, Zagreb, Croatia), vortexed, and further diluted by mixing 2 mL of this solution with 2 mL saline to reach a final concentration of 5 μg LPS/50 μL saline. […] Ketamine hydrochloride (Narketan 10) was acquired from Vetoquinol (Bern, Switzerland), and xylazine hydrochloride (Rompun, 2%) was acquired from Bayer (Leverkusen, Germany).
To induce pulmonary neutrophilia, mice in the control group received intranasal (IN) 50 μL saline, and all other animals received 5 μg LPS/50 μL saline IN per mouse.
Tracheostomy was performed, and a Buster cat catheter (1.0 × 130 mm; Kruuse, Langeskov, Denmark), shortened to 3 cm, was clamped into the trachea. The lungs were washed 3 times with cold phosphate-buffered saline (PBS; Sigma-Aldrich Chemie GmbH) in a total volume of 1 mL (0.4, 0.3, and 0.3 mL). The collected BALF samples were centrifuged (1303×g, 5 min, 4°C), and resulting cell pellets were each resuspended in 600 μL PBS. Samples were immediately analyzed for total and differential neutrophil cell counts via automated hematology analyzer (XT-2000iV; Sysmex, Kobe, Japan).
Differences between treated versus vehicle groups were determined using the Mann-Whitney test and were considered statistically significant when P<0.05. Outliers in the analysis of cytokine and chemokine concentrations were identified using the Grubbs test. No criteria were set for inclusion/exclusion of animals during the experiment or data points during the analysis.

[1] = Experiment 1, 10 mg/kg SC, listed as Azi, 10 mg/kg
[2] = Experiment 1, 30 mg/kg SC, listed as Azi, 30 mg/kg
[3] = Experiment 1, 100 mg/kg SC, listed as Azi, 100 mg/kg
[4] = Experiment 1, 1 mg/kg (IP), 1 mg/kg
[5] = Experiment 2, 0.5 mg/kg (PO), 0.5 mg/kg
[6] = Experiment 1, 10 mg/kg SC, listed as Lef, 10 mg/kg
[7] = Experiment 1, 30 mg/kg SC, listed as Lef, 30 mg/kg
[8] = Experiment 1, 100 mg/kg SC, listed as Lef, 100 mg/kg
[9] = Experiment 2, 35 mg/kg SC, listed as Lef, 35 mg/kg
[10] = Experiment 2, 70 mg/kg SC, listed as Lef, 70 mg/kg
[11] = Experiment 2, 140 mg/kg SC, listed as Lef, 140 mg/kg

CC[C@H]1OC(=O)[C@H](C)[C@@H](O[C@H]2C[C@@](C)(OC)[C@@H](O)[C@H](C)O2)[C@H](C)[C@@H](O[C@@H]2O[C@H](C)C[C@H](N(C)C)[C@H]2O)[C@](C)(O)C[C@@H](C)CN(C)[C@H](C)[C@@H](O)[C@]1(C)O [Azithromycin]
total cell and neutrophil recruitment to the lungs (measured in BALF): significant dose-dependent reductions
Neutrophils in BALF: % reduction (Experiment 1, 10 mg/kg SC): 42%
Total cells/white blood cells in BALF: % reduction (Experiment 1, 10 mg/kg SC): 68%
Neutrophils in BALF, Mean (Experiment 1, 10 mg/kg SC): 3e+08 L⁻¹
Total cells/white blood cells in BALF, Mean (Experiment 1, 10 mg/kg SC): 4.4e+08 L⁻¹
Neutrophils in BALF, individual mice [1]: 3.8e+08 L⁻¹ and 3.6e+08 L⁻¹ and 3e+08 L⁻¹ and 2.9e+08 L⁻¹ and 2.7e+08 L⁻¹ and 8e+07 L⁻¹ and 3.4e+08 L⁻¹
Total cells/white blood cells in BALF, individual mice [1]: 1.5e+08 L⁻¹ and 4.9e+08 L⁻¹ and 5.5e+08 L⁻¹ and 6.2e+08 L⁻¹ and 3.6e+08 L⁻¹ and 5.1e+08 L⁻¹ and 3.8e+08 L⁻¹
Neutrophils in BALF: % reduction (Experiment 1, 30 mg/kg SC): 45%
Total cells/white blood cells in BALF: % reduction (Experiment 1, 30 mg/kg SC): 71%
Neutrophils in BALF, Mean (Experiment 1, 30 mg/kg SC): 2.9e+08 L⁻¹
Total cells/white blood cells in BALF, Mean (Experiment 1, 30 mg/kg SC): 4.4e+08 L⁻¹
Neutrophils in BALF, individual mice [2]: 2.5e+08 L⁻¹ and 5.9e+08 L⁻¹ and 2.3e+08 L⁻¹ and 2.1e+08 L⁻¹ and 4.6e+08 L⁻¹ and 1.7e+08 L⁻¹ and 2e+08 L⁻¹
Total cells/white blood cells in BALF, individual mice [2]: 2.5e+08 L⁻¹ and 3.1e+08 L⁻¹ and 4.1e+08 L⁻¹ and 8.2e+08 L⁻¹ and 4.6e+08 L⁻¹ and 3.8e+08 L⁻¹ and 5.6e+08 L⁻¹
Neutrophils in BALF: % reduction (Experiment 1, 100 mg/kg SC): 57%
Total cells/white blood cells in BALF: % reduction (Experiment 1, 100 mg/kg SC): 95%
Neutrophils in BALF, Mean (Experiment 1, 100 mg/kg SC): 2.3e+08 L⁻¹
Total cells/white blood cells in BALF, Mean (Experiment 1, 100 mg/kg SC): 3.7e+08 L⁻¹
Neutrophils in BALF, individual mice [3]: 3.6e+08 L⁻¹ and 2.2e+08 L⁻¹ and 1.7e+08 L⁻¹ and 1.3e+08 L⁻¹ and 3.4e+08 L⁻¹ and 2.5e+08 L⁻¹ and 1.5e+08 L⁻¹ and 1.9e+08 L⁻¹
Total cells/white blood cells in BALF, individual mice [3]: 2.8e+08 L⁻¹ and 3.1e+08 L⁻¹ and 4.9e+08 L⁻¹ and 3.6e+08 L⁻¹ and 4.4e+08 L⁻¹ and 2.2e+08 L⁻¹ and 5.2e+08 L⁻¹ and 3.3e+08 L⁻¹

C[C@@H]1C[C@H]2[C@@H]3CCC4=CC(=O)C=C[C@]4(C)[C@@]3(F)[C@@H](O)C[C@]2(C)[C@@]1(O)C(=O)CO [Dexamethasone]
Neutrophils in BALF: % reduction (Experiment 1, 1 mg/kg (IP)): 47%
Total cells/white blood cells in BALF: % reduction (Experiment 1, 1 mg/kg (IP)): 75%
Neutrophils in BALF, Mean (Experiment 1, 1 mg/kg (IP)): 2.8e+08 L⁻¹
Total cells/white blood cells in BALF, Mean (Experiment 1, 1 mg/kg (IP)): 4.3e+08 L⁻¹
Neutrophils in BALF, individual mice [4]: 2.5e+08 L⁻¹ and 1.2e+08 L⁻¹ and 2.9e+08 L⁻¹ and 2.6e+08 L⁻¹ and 3e+08 L⁻¹ and 3.9e+08 L⁻¹ and 3.1e+08 L⁻¹
Total cells/white blood cells in BALF, individual mice [4]: 3.9e+08 L⁻¹ and 3.8e+08 L⁻¹ and 4.1e+08 L⁻¹ and 2.3e+08 L⁻¹ and 4.5e+08 L⁻¹ and 5.2e+08 L⁻¹ and 6.3e+08 L⁻¹
Neutrophils in BALF: % reduction (Experiment 2, 0.5 mg/kg (PO)): 61%
Total cells/white blood cells in BALF: % reduction (Experiment 2, 0.5 mg/kg (PO)): 78%
Neutrophils in BALF, Mean (Experiment 2, 0.5 mg/kg (PO)): 2.4e+08 L⁻¹
Total cells/white blood cells in BALF, Mean (Experiment 2, 0.5 mg/kg (PO)): 5e+08 L⁻¹
Neutrophils in BALF, individual mice [5]: 2.5e+08 L⁻¹ and 2e+08 L⁻¹ and 3.4e+08 L⁻¹ and 1.9e+08 L⁻¹ and 2.3e+08 L⁻¹ and 3.1e+08 L⁻¹ and 1.7e+08 L⁻¹
Total cells/white blood cells in BALF, individual mice [5]: 7e+08 L⁻¹ and 2.9e+08 L⁻¹ and 5.5e+08 L⁻¹ and 4.4e+08 L⁻¹ and 7.7e+08 L⁻¹ and 3.6e+08 L⁻¹

C=C[C@]1(C)C[C@@H](OC(=O)CS[C@@H]2CC[C@@H](N)C[C@H]2O)[C@]2(C)[C@H](C)CC[C@]3(CCC(=O)[C@H]32)[C@@H](C)[C@@H]1O [Lefamulin]
total cell and neutrophil recruitment to the lungs (measured in BALF): dose-dependent reduction; also recorded: almost complete reduction
Neutrophils in BALF: % reduction (Experiment 1, 10 mg/kg SC): 37%
Total cells/white blood cells in BALF: % reduction (Experiment 1, 10 mg/kg SC): 50%
Neutrophils in BALF, Mean (Experiment 1, 10 mg/kg SC): 3.3e+08 L⁻¹
Total cells/white blood cells in BALF, Mean (Experiment 1, 10 mg/kg SC): 5e+08 L⁻¹
Neutrophils in BALF, individual mice [6]: 4.7e+08 L⁻¹ and 2.2e+08 L⁻¹ and 1.9e+08 L⁻¹ and 3.7e+08 L⁻¹ and 3.1e+08 L⁻¹ and 1e+08 L⁻¹ and 4.5e+08 L⁻¹ and 4.9e+08 L⁻¹
Total cells/white blood cells in BALF, individual mice [6]: 6.6e+08 L⁻¹ and 5.9e+08 L⁻¹ and 6.1e+08 L⁻¹ and 3e+08 L⁻¹ and 5.1e+08 L⁻¹ and 6.3e+08 L⁻¹ and 5e+08 L⁻¹ and 1.7e+08 L⁻¹
Neutrophils in BALF: % reduction (Experiment 1, 30 mg/kg SC): 59%
Total cells/white blood cells in BALF: % reduction (Experiment 1, 30 mg/kg SC): 78%
Neutrophils in BALF, Mean (Experiment 1, 30 mg/kg SC): 2.2e+08 L⁻¹
Total cells/white blood cells in BALF, Mean (Experiment 1, 30 mg/kg SC): 4.2e+08 L⁻¹
Neutrophils in BALF, individual mice [7]: 2.1e+08 L⁻¹ and 3.8e+08 L⁻¹ and 1.2e+08 L⁻¹ and 2.5e+08 L⁻¹ and 1.7e+08 L⁻¹ and 2.3e+08 L⁻¹ and 1.6e+08 L⁻¹
Total cells/white blood cells in BALF, individual mice [7]: 2.7e+08 L⁻¹ and 3.7e+08 L⁻¹ and 3.5e+08 L⁻¹ and 6.6e+08 L⁻¹ and 2.6e+08 L⁻¹ and 3.9e+08 L⁻¹ and 3.8e+08 L⁻¹
Neutrophils in BALF: % reduction (Experiment 1, 100 mg/kg SC): 70%
Total cells/white blood cells in BALF: % reduction (Experiment 1, 100 mg/kg SC): 100%
Neutrophils in BALF, Mean (Experiment 1, 100 mg/kg SC): 1.6e+08 L⁻¹
Total cells/white blood cells in BALF, Mean (Experiment 1, 100 mg/kg SC): 3.5e+08 L⁻¹
Neutrophils in BALF, individual mice [8]: 1.4e+08 L⁻¹ and 1.8e+08 L⁻¹ and 1.2e+08 L⁻¹ and 1.3e+08 L⁻¹ and 2.8e+08 L⁻¹ and 1.7e+08 L⁻¹
Total cells/white blood cells in BALF, individual mice [8]: 3.3e+08 L⁻¹ and 2.4e+08 L⁻¹ and 3.1e+08 L⁻¹ and 3.4e+08 L⁻¹ and 2.3e+08 L⁻¹ and 3.9e+08 L⁻¹ and 6.6e+08 L⁻¹
Neutrophils in BALF: % reduction (Experiment 2, 35 mg/kg SC): 64%
Total cells/white blood cells in BALF: % reduction (Experiment 2, 35 mg/kg SC): 69%
Neutrophils in BALF, Mean (Experiment 2, 35 mg/kg SC): 2.2e+08 L⁻¹
Total cells/white blood cells in BALF, Mean (Experiment 2, 35 mg/kg SC): 5.5e+08 L⁻¹
Neutrophils in BALF, individual mice [9]: 2e+08 L⁻¹ and 1.6e+08 L⁻¹ and 2.4e+08 L⁻¹ and 2.2e+08 L⁻¹ and 3.4e+08 L⁻¹ and 1.9e+08 L⁻¹ and 3.1e+08 L⁻¹ and 1.2e+08 L⁻¹
Total cells/white blood cells in BALF, individual mice [9]: 9.1e+08 L⁻¹ and 2e+08 L⁻¹ and 7e+08 L⁻¹ and 4.4e+08 L⁻¹ and 4.6e+08 L⁻¹ and 3.7e+08 L⁻¹ and 7.3e+08 L⁻¹ and 5.5e+08 L⁻¹
Neutrophils in BALF: % reduction (Experiment 2, 70 mg/kg SC): 77%
Total cells/white blood cells in BALF: % reduction (Experiment 2, 70 mg/kg SC): 91%
Neutrophils in BALF, Mean (Experiment 2, 70 mg/kg SC): 1.5e+08 L⁻¹
Total cells/white blood cells in BALF, Mean (Experiment 2, 70 mg/kg SC): 4.3e+08 L⁻¹
Neutrophils in BALF, individual mice [10]: 1.8e+08 L⁻¹ and 1.7e+08 L⁻¹ and 1.1e+08 L⁻¹ and 1e+08 L⁻¹ and 2.1e+08 L⁻¹ and 1.2e+08 L⁻¹ and 9e+07 L⁻¹
Total cells/white blood cells in BALF, individual mice [10]: 4.6e+08 L⁻¹ and 2.1e+08 L⁻¹ and 4.3e+08 L⁻¹ and 4.4e+08 L⁻¹ and 3.3e+08 L⁻¹ and 3e+08 L⁻¹ and 5.8e+08 L⁻¹ and 6.7e+08 L⁻¹
Neutrophils in BALF: % reduction (Experiment 2, 140 mg/kg SC): 77%
Total cells/white blood cells in BALF: % reduction (Experiment 2, 140 mg/kg SC): 107%
Neutrophils in BALF, Mean (Experiment 2, 140 mg/kg SC): 1.5e+08 L⁻¹
Total cells/white blood cells in BALF, Mean (Experiment 2, 140 mg/kg SC): 3.4e+08 L⁻¹
Neutrophils in BALF, individual mice [11]: 1.6e+08 L⁻¹ and 1.4e+08 L⁻¹ and 1.2e+08 L⁻¹ and 1.7e+08 L⁻¹ and 9e+07 L⁻¹ and 2e+08 L⁻¹
Total cells/white blood cells in BALF, individual mice [11]: 4.6e+08 L⁻¹ and 3.9e+08 L⁻¹ and 2.6e+08 L⁻¹ and 2.9e+08 L⁻¹ and 3.6e+08 L⁻¹ and 3.3e+08 L⁻¹ and 4.4e+08 L⁻¹ and 2e+08 L⁻¹
